From ChEMBL document CHEMBL1201861, “Genomics of Drug Sensitity in Cancer screening data, Wellcome Trust Sanger Institute” come the findings set out here.

Usually IC50 stands for the concentration needed to halve the response being measured.

Structures are written as SMILES.

Common to all, as to assay type: functional, cell-based
The test system of experiment [1] is MDA-MB-134-VI. The experiment can be described thus: cells. The settings on record: Homo sapiens.
Description: SANGER: Inhibition of human MDA-MB-134-VI cell growth in a cell viability assay.
In experiment [2] the test system is NB14. The experiment can be described thus: cells. The settings on record: Homo sapiens.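 Further: growth inhibition of NB14 cells measured with a cell viability assay.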
Description: SANGER: Inhibition of human NB14 cell growth in a cell viability assay.
Experiment [3] has as its system ARH-77. Description: cells. The following applies: Homo sapiens.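 Further: growth inhibition of ARH-77 cells, read out by a cell viability assay.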
Description: SANGER: Inhibition of human ARH-77 cell growth in a cell viability assay.
Experiment [4] concerns A253 cell line. The experiment can be described thus: cells. The settings on record: Homo sapiens.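 Further: growth inhibition of A253 cells, read out with a cell viability assay.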
Description: SANGER: Inhibition of human A253 cell growth in a cell viability assay.
Experiment [5] concerns NCI-H1694. The experiment can be described thus: cells. The settings on record: Homo sapiens.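 Further: cell viability assay measuring inhibition of growth in human NCI-H1694 cells.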
Description: SANGER: Inhibition of human NCI-H1694 cell growth in a cell viability assay.
For experiment [6], the system named is LB996-RCC. Description: cells. The settings on record: Homo sapiens.
Description: SANGER: Inhibition of human LB996-RCC cell growth in a cell viability assay.
The test system of experiment [7] is NCI-H345. Description: cells. The following applies: Homo sapiens.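 Further: growth inhibition of NCI-H345 cells measured with a cell viability assay.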
Description: SANGER: Inhibition of human NCI-H345 cell growth in a cell viability assay.
The subject of experiment [8] is Daudi. Description: cells. The following applies: Homo sapiens.
Description: SANGER: Inhibition of human Daudi cell growth in a cell viability assay.
Experiment [9] deals with LU-165. Description: cells. The settings on record: Homo sapiens.
Description: SANGER: Inhibition of human LU-165 cell growth in a cell viability assay.
Experiment [10] concerns L-540. The experiment can be described thus: cells. The following applies: Homo sapiens.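 Further: growth inhibition of the human L-540 cell line, read out with a viability assay.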
Description: SANGER: Inhibition of human L-540 cell growth in a cell viability assay.
Experiment [11] deals with NCI-H322M. The experiment can be described thus: cells. The settings on record: Homo sapiens.
Description: SANGER: Inhibition of human NCI-H322M cell growth in a cell viability assay.
Experiment [12] has as its system D-336MG. The experiment can be described thus: cells. The following applies: Homo sapiens.
Description: SANGER: Inhibition of human D-336MG cell growth in a cell viability assay.
For experiment [13], the system named is P31-FUJ. Description: cells. The following applies: Homo sapiens.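 Further: growth inhibition of P31-FUJ cells, read out with a viability assay.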
Description: SANGER: Inhibition of human P31-FUJ cell growth in a cell viability assay.
Experiment [14] deals with KARPAS-422. Description: cells. The following applies: Homo sapiens.
Description: SANGER: Inhibition of human KARPAS-422 cell growth in a cell viability assay.
The subject of experiment [15] is NCI-H2141. Description: cells. The following applies: Homo sapiens.
Description: SANGER: Inhibition of human NCI-H2141 cell growth in a cell viability assay.
For experiment [16], the system named is SNU-16. Description: cells. The settings on record: Homo sapiens.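 Further: growth inhibition of human SNU-16 cells, determined with a cell viability readout.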
Description: SANGER: Inhibition of human NCI-SNU-16 cell growth in a cell viability assay.
Experiment [17] deals with NB17. The experiment can be described thus: cells. The settings on record: Homo sapiens.
Description: SANGER: Inhibition of human NB17 cell growth in a cell viability assay.
Experiment [18] relates to D-247MG. Description: cells. The following applies: Homo sapiens.
Description: SANGER: Inhibition of human D-247MG cell growth in a cell viability assay.
Experiment [19] deals with SU-DHL-1. Description: SANGER: Inhibition of human SU-DHL-1 cell growth in a cell viability assay.
The subject of experiment [20] is HT-29. The experiment can be described thus: cells. The settings on record: Homo sapiens.
Description: SANGER: Inhibition of human HT-29 cell growth in a cell viability assay.
Experiment [21] relates to MG-63. Description: cells. The settings on record: Homo sapiens.
Description: SANGER: Inhibition of human MG-63 cell growth in a cell viability assay.
Experiment [22] deals with NCI-H292. The experiment can be described thus: cells. The following applies: Homo sapiens.
Description: SANGER: Inhibition of human NCI-H292 cell growth in a cell viability assay.
The subject of experiment [23] is EFO-27. Description: cells. The following applies: Homo sapiens.
Description: SANGER: Inhibition of human EFO-27 cell growth in a cell viability assay.
The subject of experiment [24] is SN12C. Description: cells. The following applies: Homo sapiens.
Description: SANGER: Inhibition of human SN12C cell growth in a cell viability assay.
For experiment [25], the system named is RCM-1. Description: cells. The following applies: Homo sapiens.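 Further: growth inhibition of the RCM-1 line, determined with a cell viability readout.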
Description: SANGER: Inhibition of human RCM-1 cell growth in a cell viability assay.
Experiment [26] relates to C-33-A. Description: cells. The following applies: Homo sapiens.
Description: SANGER: Inhibition of human C-33-A cell growth in a cell viability assay.
Experiment [27] deals with P12-Ichikawa. The experiment can be described thus: cells. The settings on record: Homo sapiens.
Experiment [28] deals with PANC-03-27. Description: cells. The following applies: Homo sapiens.
Description: SANGER: Inhibition of human PANC-03-27 cell growth in a cell viability assay.
Experiment [29] has as its system T-24. The experiment can be described thus: cells. The following applies: Homo sapiens.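 Further: growth inhibition of T-24 cells, read out with a cell viability assay.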
Description: SANGER: Inhibition of human T-24 cell growth in a cell viability assay.
In experiment [30] the test system is RPMI-2650. Description: cells. The settings on record: Homo sapiens.
Description: SANGER: Inhibition of human RPMI-2650 cell growth in a cell viability assay.
For experiment [31], the system named is KYSE-510. The experiment can be described thus: cells. The following applies: Homo sapiens.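 Further: cell viability readout used to measure how strongly growth of the cell line is suppressed.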
Description: SANGER: Inhibition of human KYSE-510 cell growth in a cell viability assay.
Experiment [32] deals with NCI-H2052. The experiment can be described thus: cells. The following applies: Homo sapiens.
Description: SANGER: Inhibition of human NCI-H2052 cell growth in a cell viability assay.
For experiment [33], the system named is RVH-421. Description: cells. The settings on record: Homo sapiens.
Description: SANGER: Inhibition of human RVH-421 cell growth in a cell viability assay.
Experiment [34] has as its system SCC-25. Description: cells. The following applies: Homo sapiens.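 Further: growth inhibition of SCC-25 cells, measured with a cell viability assay.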
Description: SANGER: Inhibition of human SCC-25 cell growth in a cell viability assay.
Experiment [35] relates to PA-1. The experiment can be described thus: cells. The settings on record: Homo sapiens.
Description: SANGER: Inhibition of human PA-1 cell growth in a cell viability assay.
Experiment [36] relates to A673. The experiment can be described thus: cells. The settings on record: Homo sapiens.
Description: SANGER: Inhibition of human A673 cell growth in a cell viability assay.
Experiment [37] concerns NCI-H2009. Description: cells. The following applies: Homo sapiens.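 Further: cell viability assay measuring inhibition of NCI-H2009 cell growth.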
Description: SANGER: Inhibition of human NCI-H2009 cell growth in a cell viability assay.
Experiment [38] concerns CAL-51. The experiment can be described thus: cells. The following applies: Homo sapiens.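 Further: human CAL-51 cell line, growth inhibition read out via a cell viability assay.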
Description: SANGER: Inhibition of human CAL-51 cell growth in a cell viability assay.
In experiment [39] the test system is KNS-62. Description: cells. The settings on record: Homo sapiens.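 Further: inhibition of cell growth, read out with a cell viability assay.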
Description: SANGER: Inhibition of human KNS-62 cell growth in a cell viability assay.
Experiment [40] has as its system TYK-nu. The experiment can be described thus: cells. The following applies: Homo sapiens.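 Further: growth inhibition of human TYK-nu cells, read out by a cell viability assay.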
Description: SANGER: Inhibition of human TYK-nu cell growth in a cell viability assay.
For experiment [41], the system named is 647-V. Description: cells. The settings on record: Homo sapiens.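 Further: growth inhibition of 647-V cells, read out with a cell viability assay.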
Description: SANGER: Inhibition of human 647-V cell growth in a cell viability assay.
Experiment [42] has as its system HuP-T3. Description: cells. The settings on record: Homo sapiens.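 Further: HuP-T3 cell growth inhibition, read out with a cell viability assay.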
Description: SANGER: Inhibition of human HuP-T3 cell growth in a cell viability assay.
Experiment [43] concerns HT-1376. Description: cells. The settings on record: Homo sapiens.
Description: SANGER: Inhibition of human HT-1376 cell growth in a cell viability assay.
The subject of experiment [44] is 23132-87. Description: cells. The following applies: Homo sapiens.
Description: SANGER: Inhibition of human 23132-87 cell growth in a cell viability assay.
Experiment [45] concerns NCI-H1703. Description: cells. The settings on record: Homo sapiens.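 Further: growth inhibition of NCI-H1703 cells, read out via a cell viability assay.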
Description: SANGER: Inhibition of human NCI-H1703 cell growth in a cell viability assay.
In experiment [46] the test system is NCI-H2030. Description: cells. The following applies: Homo sapiens.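 Further: growth inhibition of human NCI-H2030 cells, read out by a cell viability assay.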
Description: SANGER: Inhibition of human NCI-H2030 cell growth in a cell viability assay.
Experiment [47] relates to SK-MEL-30. The experiment can be described thus: cells. The settings on record: Homo sapiens.
Description: SANGER: Inhibition of human SK-MEL-30 cell growth in a cell viability assay.
Experiment [48] deals with Ca-Ski. Description: cells. The settings on record: Homo sapiens.
Description: SANGER: Inhibition of human Ca-Ski cell growth in a cell viability assay.
In experiment [49] the test system is UMUC3. Description: cells. The settings on record: Homo sapiens.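 Further: growth inhibition of human UM-UC-3 cells, read out with a cell viability assay.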
Description: SANGER: Inhibition of human UM-UC-3 cell growth in a cell viability assay.
Experiment [50] deals with PC-14. The experiment can be described thus: cells. The settings on record: Homo sapiens.
Description: SANGER: Inhibition of human PC-14 cell growth in a cell viability assay.
Experiment [51] concerns A2058. Description: cells. The settings on record: Homo sapiens.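 Further: reduction of A2058 cell growth, read out with a viability assay.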
Description: SANGER: Inhibition of human A2058 cell growth in a cell viability assay.
Experiment [52] deals with KYSE-520 cell line. Description: cells. The following applies: Homo sapiens.
Description: SANGER: Inhibition of human KYSE-520 cell growth in a cell viability assay.
The subject of experiment [53] is LU-135. Description: cells. The settings on record: Homo sapiens.
Description: SANGER: Inhibition of human LU-135 cell growth in a cell viability assay.
The subject of experiment [54] is NCI-H2342. Description: cells. The settings on record: Homo sapiens.
Description: SANGER: Inhibition of human NCI-H2342 cell growth in a cell viability assay.
Experiment [55] has as its system CAL-62. The experiment can be described thus: cells. The following applies: Homo sapiens.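 Further: growth inhibition of CAL-62 cells, read out with a cell viability assay.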
Description: SANGER: Inhibition of human CAL-62 cell growth in a cell viability assay.

As for `CCNc1cc(N[C@H]2CC[C@@H](O)CC2)nc(Nc2ccc3c(ccn3Cc3ccccc3)c2)n1`, the IC50 in experiment [1], in [2], in experiment [3], in experiment [4], in experiment [5] and in experiment [6] was above 5120 nM throughout. Moreover, the IC50 in experiment [7], in experiment [8], in [9], in experiment [10], in experiment [11] and in [12] was above 5120 nM in each case. The IC50 in experiment [13], in experiment [14], in [15], in experiment [16], in experiment [17] and in experiment [18] was above 5120 nM in each case. In experiment [19], this compound gave an IC50 above 5120 nM.
As to `COc1cc(C)c(Sc2cnc(NC(=O)c3ccc(CNC(C)C(C)(C)C)cc3)s2)cc1C(=O)N1CCN(C(C)=O)CC1` (stereo not drawn), the half-inhibitory concentration (IC50) in [1], in experiment [2], in experiment [3], in [4], in experiment [5] and in experiment [6] was above 10200 nM throughout. In addition, the IC50 is above 10200 nM in [7]; above 10200 nM in experiment [8]; above 10200 nM in [9]; above 10200 nM in experiment [10]; above 10200 nM in experiment [11]; 6780 nM in experiment [12]. Moreover, the IC50 was above 10200 nM in experiment [13]; above 10200 nM in experiment [14]; above 10200 nM in experiment [15]; above 10200 nM in experiment [16]; 8920 nM in [17]; above 10200 nM in experiment [18]. The same compound came in with a half-inhibitory concentration (IC50) in [19] above 10200 nM.
Take `Cc1ccc(NC(=O)c2cccc(C(C)(C)C#N)c2)cc1Nc1ccc2ncn(C)c(=O)c2c1`: the IC50 was above 4000 nM in experiment [1]; 493 nM in experiment [2]; above 4000 nM in [3]; above 4000 nM in experiment [4]; above 4000 nM in experiment [5]; above 4000 nM in experiment [6]. In addition, the IC50 in experiment [7] was above 4000 nM; in [8], above 4000 nM; in experiment [9] it was above 4000 nM; in experiment [10], 3960 nM; in experiment [11], above 4000 nM; in [12], above 4000 nM. In addition, the IC50 in [13], in [14], in experiment [15], in [16], in experiment [17] and in experiment [18] was above 4000 nM in each case. It took 3530 nM to reach half-maximal inhibition in experiment [19] (IC50).
On to `Cc1n[nH]c2ccc(-c3cncc(OC[C@@H](N)Cc4c[nH]c5ccccc45)c3)cc12` [A-443654], for which the IC50 in experiment [1] is 489 nM; in [2], above 1020 nM; in [3] it was 298 nM; in [4] it was 393 nM; in experiment [5], 509 nM; in experiment [6], 122 nM. Besides, the IC50 is 750 nM in [7]; 355 nM in experiment [8]; 620 nM in experiment [9]; 346 nM in experiment [10]; above 1020 nM in [11]; 421 nM in [12]. For the same compound, the half-maximal inhibitory concentration (IC50) in [13] is above 1020 nM; in experiment [14], 294 nM; in experiment [15], 540 nM; in experiment [16] it was above 1020 nM; in experiment [17] it was 112 nM; in [18], 974 nM. Also, the IC50 in experiment [19] was 797 nM.
Take `CC[C@@]1(O)C(=O)OCc2c1cc1n(c2=O)Cc2cc3ccccc3nc2-1` [CAMPTOTHECIN]: the half-inhibitory concentration (IC50) in experiment [20] was determined as 85.5 nM; in experiment [2] it was 0.907 nM; in [21], 7.65 nM; in [22], 2.24 nM; in experiment [23], 81 nM; in experiment [24] it was 4.5 nM. Moreover, the IC50 amounted to 28.7 nM in experiment [25]; 6.48 nM in [26]; 0.102 nM in experiment [27]; 7.1 nM in [28]; 1.61 nM in experiment [29]; 2.22 nM in experiment [30]. In addition, the IC50 is 6.75 nM in experiment [31]; 28.3 nM in [32]; 71.5 nM in experiment [33]; 56.7 nM in experiment [34]; 0.981 nM in [35]; 0.815 nM in [36]. The IC50 in experiment [37] is 68.1 nM; in experiment [38], 29.7 nM; in [39], 7.7 nM; in experiment [40], 4.94 nM; in [41], 0.896 nM; in experiment [42] it was 36.4 nM. For the same compound, the IC50 in experiment [12] is 5.2 nM; in [43], above 100 nM; in [44] it was 19.5 nM; in [45] it was 6.51 nM; in experiment [46], 48.5 nM; in [47], above 100 nM. For the same compound, the IC50 turned out to be 4.97 nM in [48]; 3.09 nM in experiment [49]; 2.18 nM in experiment [17]; 13.6 nM in experiment [50]; 3.6 nM in experiment [51]; 82.6 nM in [52]. The IC50 in experiment [53] is 28.2 nM; in experiment [18], 39.5 nM; in experiment [54] it was above 100 nM; in experiment [55], 0.984 nM.
Consider `Cc1nc(Nc2ncc(C(=O)Nc3c(C)cccc3Cl)s2)cc(N2CCN(CCO)CC2)n1` [DASATINIB], for which the IC50 in [1] was above 1280 nM; in experiment [2] it was above 1280 nM; in experiment [3], above 1280 nM; in experiment [4], above 1280 nM; in experiment [5] it was above 1280 nM; in [6] it was 9.91 nM. Besides, the IC50 in [7] was above 1280 nM; in experiment [8], above 1280 nM; in experiment [9], above 1280 nM; in experiment [10], above 1280 nM; in experiment [11] it was above 1280 nM; in experiment [12] it was 6.3 nM. In addition, the IC50 in experiment [13] is above 1280 nM; in experiment [14], 340 nM; in experiment [15], above 1280 nM; in experiment [16], above 1280 nM; in [17] it was above 1280 nM; in experiment [18] it was above 1280 nM. Besides, the IC50 in experiment [19] was above 1280 nM.
Consider `CCn1c(-c2nonc2N)nc2cnc(Oc3cccc(NC(=O)c4ccc(OCCN5CCOCC5)cc4)c3)cc21` [GSK-269962A], for which the IC50 in [1], in experiment [2], in experiment [3], in experiment [4], in [5] and in experiment [6] was above 2500 nM throughout. Also, the IC50 in [7] is above 2500 nM; in [8], 2100 nM; in [9] it was above 2500 nM; in experiment [10], above 2500 nM; in experiment [11], above 2500 nM; in experiment [12], 629 nM. Also, the IC50 in experiment [13] was above 2500 nM; in experiment [14] it was above 2500 nM; in [15], above 2500 nM; in experiment [16], above 2500 nM; in experiment [17] it was above 2500 nM; in [18] it was 628 nM. This compound came in with an IC50 in [19] above 2500 nM.
Consider `Cc1[nH]c(/C=C2\C(=O)Nc3ccc(S(=O)(=O)Cc4c(Cl)cccc4Cl)cc32)c(C)c1C(=O)N1CCC[C@@H]1CN1CCCC1` [PHA-665752], for which the IC50 in [1], in experiment [2], in experiment [3], in experiment [4], in [5] and in experiment [6] was above 2000 nM in each case. For the same compound, the half-maximal inhibitory concentration (IC50) in experiment [7], in [8], in experiment [9], in experiment [10], in [11] and in experiment [12] was above 2000 nM each time. The IC50 in [13], in experiment [14], in [15], in experiment [16], in experiment [17] and in [18] was above 2000 nM each time. The compound further showed an IC50 in [19] above 2000 nM.
